ChEMBL document CHEMBL1129092, “Structure-activity relationship study on N-glycosyl moieties through model building of DNA and ellipticine N-glycoside complex” (1996)
Calls of active or inactive are those of the source. The rule behind the calls is not given here.

Tests used:
L1210 = assay: Antitumor activity against L1210 in mice, after ip administration at 30 mg/kg for 5 consecutive days, expressed as average % of life time in 6 mice, treated mice/control; type: functional, Mus musculus; details: route intraperitoneal
Mus musculus [1] = organism: Mus musculus; assay: Compound was tested for antitumor activity against L1210 in mice; Active; type: functional, organism-based
Mus musculus [2] = organism: Mus musculus; assay: Compound was tested for antitumor activity against L1210 in mice; Inactive; type: functional, organism-based

Cc1c2cc[n+]([C@@H]3OC[C@H](O)[C@H](O)[C@H]3O)cc2c(C)c2c1[nH]c1ccc(O)cc12.[Br-]
T/C (L1210): >960%
Activity Score (Mus musculus [1]): Active

CO[C@@H]1[C@@H](O)[C@H]([n+]2ccc3c(C)c4[nH]c5ccc(O)cc5c4c(C)c3c2)OC[C@@H]1O.[Br-]
T/C (L1210): 169%
Activity Score (Mus musculus [1]): Active

CO[C@H]1CO[C@@H]([n+]2ccc3c(C)c4[nH]c5ccc(O)cc5c4c(C)c3c2)[C@H](O)[C@H]1O.[Br-]
T/C (L1210): 167%
Activity Score (Mus musculus [1]): Active

CO[C@@H]1[C@@H](O)[C@@H](O)CO[C@H]1[n+]1ccc2c(C)c3[nH]c4ccc(O)cc4c3c(C)c2c1.[Br-]
T/C (L1210): 123%
Activity Score (Mus musculus [2]): inactive
